Assay results: US6852754B1, “Biologically active linderazulene terpenes” (Harbor Branch Oceanographic Institution, Inc., priority 2004, dated 2005)

Assays:
[1] = tested on: PANC-1 human pancreatic cell line; assay: Antiproliferative MTT assay, PANC-1 cells, 72 hours exposure; format: cell-based
Description: (§1) Compounds I and II was analyzed as to their effect on the proliferation of PANC-1 human pancreatic and P388 murine leukemia cell lines. P388 cells were obtained from Dr. R. Camalier, National Cancer Institute, Bethesda, Md., and PANC-1 cells were obtained from American Type Culture Collection, Rockville, Md. All cell lines were maintained in tissue culture medium (TCM; Roswell Park Memorial Institute RPMI 1640 supplemented with 100 U/mL penicillin, […] streptomycin, […] 1-glutamine, 18 mM HEPES, 0.05 mg/mL gentamicin (Life Technologies, Gaithersburg, Md.) and 10% fetal bovine serum) and cultured in plastic tissue culture flasks at 37° C. in humidified air containing 5% CO2. Stock cultures of P388 cells were subcultured 1:20 in fresh TCM every 2 to 3 days. Stock cultures of […] cells were subcultured 1:10 every 3 to 4 days. To assess the antiproliferative effects of agents against the cells, […] cultures (96-well tissue culture plates, Nunc, Denmark) were established at 1×10^5 cells/mL in TCM or TCM containing the test agent at 0.03-5.0 μg/mL. After 48-h exposures, P388 cells were enumerated using 3-[4,5-dimethylthiazol-2-yl]-2,5-diphenyltetrazolium bromide (MTT) as described in the literature (M. C. Alley, et al., Cancer Res. 48:589, 1988). […] The results were expressed as percent inhibition compared to the negative (no drug) control. […]

[2] = tested on: P388 murine leukemia cell line; assay: Antiproliferative MTT assay, P388 cells, 48-h exposure; format: cell-based; settings: Mus musculus, read-out: P388 (IC50 μg/ml)
Description: as §1

Row | SMILES | PANC-1 (IC50 μg/ml) [1] | IC50 [2] [µg/mL] | IC50 ([1]; Homo sapiens, read-out: PANC-1 (IC50 μg/ml)) [µg/mL]
1 | Cc1cc2occc2cc2c(C=O)ccc1-2 [11-formyllinderazulene (II), 11-formyllinderazulene] | No inhibition of cell | 15.6 | –
2 | COC(=O)c1ccc2c(C)cc3occc3cc1-2 [11-carbomethoxylinderazulene (I), 11-carbomethoxylinderazulene] | – | 2.7 | 18.7
